Data as given in US6384173B1, “Silicone functionalized triclosan” (Siltech LLC, priority 2001, dated 2002).
Where two headings read alike, the source gives them in different places.

Legend:
[1] = TGA, 40 to 250 degrees at 20 degree C./minute; value marked (U.S. Pat. No. 6,197,072); cited from earlier work
[2] = Thermal Gravimetric Analysis (weight percent lost); type: physicochemical; settings: Perkin-Elmer TGA 7, temperature scanned from 40 to 250 degrees at 20 degree C./minute, at completion of scan
Procedure: Thermal Gravimetric Analysis
Measurements were obtained of the weight percent lost for the samples below using a Perkin-Elmer TGA 7 where the temperature was scanned from 40° to 250° at 20° C./minute. At the completion of the temperature scan for each, the following results were obtained: […]

| Molecule | % Weight Loss [1] | % Weight Loss [2] |
| --- | --- | --- |
| Triclosan Acetate | 12 (U.S. Pat. No. 6,197,072) % | – |
| Oc1cc(Cl)ccc1Oc1ccc(Cl)cc1Cl [Triclosan, triclosan] | – | 62% |
